Reference: paper PMC5773651, “Customised in vitro model to detect human metabolism-dependent idiosyncratic drug-induced liver injury” (Archives of Toxicology, 2017)
Read-outs that look alike come from different tables or passages of the source. Marks after values point to notes of the source that are not given here.

Key:
[1] = system: HepG2 cells transduced with AdCYP2C9; assay: Cell viability (PI), IC50, AdCYP2C9-HepG2; format: cell-based; settings: Homo sapiens, unit inferred, tested range in µM
[2] = system: HepG2 cells; settings: human, 24 h
Protocol: (§1) For subculturing purposes, cells were detached by treatment with 0.25% trypsin/0.02% EDTA at 37 °C. For the adenovirus infection studies, cells were seeded in 96-well plates (5000 cells/well) and adenovirus-containing medium was added 48 h later. After 24 h, cells were transferred to the adenovirus-free medium and cultured for an additional 24-h period prior to the incubations performed with the test chemicals. To optimise the expression of the functional enzymes in the adenovirus-transduced HepG2 (Ad-HepG2) cells, different doses (MOI, multiplicity of infection, defined as plaque formation units per cell) of each adenovirus were tested.
(§2) The drugs included in the study were chosen based on previous information about their hepatotoxicity. Information on the potential mechanisms implicated in the toxicity of each compound and the major enzymes involved in their metabolism is summarised in Table 1. HepG2 or Ad-HepG2 (48 h post-infection) cells were exposed for 24 h to eight concentrations of the tested compounds. Each experimental condition was repeated independently three times (with three wells measured each time). The stock solutions of compounds were prepared in DMSO and were conveniently diluted in the culture medium to obtain the desired final concentrations. The final DMSO concentration in the culture medium was 0.5% (v/v), and the control cultures were treated with the same amount of solvent.
(§3) Following treatments, cells were simultaneously loaded with several fluorescent dyes to measure multiple biomarkers of cell toxicity. […] Information about the probes is summarised in Supplementary Table S2.
(§4) After incubating with dyes, cells were imaged by the Scan^R system (Olympus, Germany). Dyes were excited, and their fluorescence was monitored at the excitation and emission wavelengths at appropriate filter settings. The collected images were analysed using the Scan^R analysis module, which allows the simultaneous quantification of subcellular structures that are stained by different fluorescent probes.

[3] = cited from earlier work; for Bioactivation / Enzyme: major enzyme(s) involved in the bioactivation (denoted as *) or detoxification of the drug: previous information; for Toxicity (mechanisms of toxicity): ref Ashrafian et al. [2007], Donato et al. [2009], Fromenty and Pessayre [1997], Rolo et al. [2000], Tolosa et al. [2012b]
[4] = system: HepG2 cells; assay: Cell viability (PI), IC50, control HepG2 cells; format: cell-based; settings: Homo sapiens; control non-transduced HepG2; 24 h; unit inferred, tested range in µM; read-out: IC50 (cell viability), C
[5] = system: HepG2 cells transduced with AdCYP2C9; assay: HCS hepatotoxicity assay (MEC, TR), AdCYP2C9-HepG2; format: cell-based, human; settings: 24 h; for TR: TR = 100 x Cmax/lowest MEC; for MEC Apoptosis / MEC Calcium / MEC MMP / MEC Mitochondrial superoxide / MEC ROS: unit inferred, tested range in µM
Protocol: as §1, §2, §3, §4

[6] = ref Atienzar et al. ([2014]), Garside et al. ([2014]), Tolosa et al. ([2012b]); cited from earlier work
[7] = system: HepG2 cells transduced with AdCYP3A4; assay: HCS hepatotoxicity assay (MEC, TR), AdCYP3A4-HepG2; format: cell-based, human; settings: 24 h; for TR: TR = 100 x Cmax/lowest MEC; for MEC Apoptosis / MEC Calcium / MEC MMP / MEC Mitochondrial superoxide / MEC ROS: unit not given, tested range in µM
[8] = system: HepG2 cells co-transduced with AdCYP3A4 and AdCYP2C9; assay: HCS hepatotoxicity assay (MEC, TR), AdCYP3A4 + AdCYP2C9 HepG2; format: cell-based, human; settings: 24 h; for TR: TR = 100 x Cmax/lowest MEC; for MEC Apoptosis / MEC Calcium / MEC MMP / MEC Mitochondrial superoxide / MEC ROS: unit not given, tested range in µM
[9] = system: HepG2 cells transduced with CYP3A4 in the presence of CYP2C19; assay: HCS hepatotoxicity assay (MEC, TR), AdCYP3A4 + AdCYP2C19 HepG2; format: cell-based, human; settings: CYP3A4-4X + CYP2C19-1X, 24 h
From the text: For all the compounds and studied parameters, the MEC led to at least a 20% variation in fluorescence intensity or in the corresponding morphological parameter compared to the untreated cultures.

[10] = system: HepG2 cells transduced with AdCYP2C19; assay: Cell viability (PI), IC50, AdCYP2C19-HepG2; format: cell-based; settings: Homo sapiens, unit inferred, tested range in µM
Protocol: as §1, §2, §3, §4

[11] = system: HepG2 cells co-transduced with AdCYP3A4 and AdUGT2B7; assay: HCS hepatotoxicity assay (MEC, TR), AdCYP3A4 + AdUGT2B7 HepG2; format: cell-based, human; settings: 24 h; for TR: TR = 100 x Cmax/lowest MEC; for MEC Apoptosis / MEC Calcium / MEC MMP / MEC Mitochondrial superoxide / MEC ROS: unit not given, tested range in µM
[12] = system: HepG2 cells transduced with AdCYP3A4; assay: Cell viability (PI), IC50, AdCYP3A4-HepG2; format: cell-based; settings: Homo sapiens, unit inferred, tested range in µM
Protocol: as §1, §2, §3, §4

[13] = ADV CYP2C9 x1, 24 h, read-out: IC50 (cell viability), ADV dose x1
[14] = ADV CYP2C9 x4, 24 h, read-out: IC50 (cell viability), ADV dose x4
[15] = ADV CYP2C9 x10, 24 h, read-out: IC50 (cell viability), ADV dose x10
[16] = unit not given, tested range in µM
[17] = ADV CYP3A4 x1, 24 h, read-out: IC50 (cell viability), ADV dose x1
[18] = ADV CYP3A4 x4, 24 h, read-out: IC50 (cell viability), ADV dose x4
[19] = ADV CYP3A4 x10, 24 h, read-out: IC50 (cell viability), ADV dose x10

O=C(O)COc1ccc(C(=O)c2cccs2)c(Cl)c1Cl [Tienilic acid]
IC50 [1, 13]: > 1200 µM | IC50 [1, 14]: 1160 µM | IC50 [1, 15]: 846 µM | MEC Apoptosis [2]: 1200 µM | MEC Calcium [2]: 800 | MEC MMP [2]: >1200 | MEC Mitochondrial superoxide [2]: 800 | MEC ROS [2]: 1200 | TR [2]: 10.3 | Bioactivation [3]: Yes | Enzyme: major enzyme(s) involved in the bioactivation (denoted as *) or detoxification of the drug [3]: CYP2C9* | Toxicity (mechanisms of toxicity) [3]: CB, OS | IC50 [4]: > 1200 µM | TR ([5]; AdCYP 2C9 1x): 13.8 | MEC Apoptosis ([5]; AdCYP 2C9 1x): 600 µM | MEC Calcium ([5]; AdCYP 2C9 1x): 600 µM | MEC MMP ([5]; AdCYP 2C9 1x): > 1200 µM | MEC Mitochondrial superoxide ([5]; AdCYP 2C9 1x): 600 µM | MEC ROS ([5]; AdCYP 2C9 1x): 800 µM | TR ([5]; AdCYP 2C9 4x): 20.7 | MEC Apoptosis ([5]; AdCYP 2C9 4x): 400 µM | MEC Calcium ([5]; AdCYP 2C9 4x): 400 µM | MEC MMP ([5]; AdCYP 2C9 4x): > 1200 µM | MEC Mitochondrial superoxide ([5]; AdCYP 2C9 4x): 400 µM | MEC ROS ([5]; AdCYP 2C9 4x): 600 µM | TR ([5]; AdCYP 2C9 10x): 41.3 | MEC Apoptosis ([5]; AdCYP 2C9 10x): 200 µM | MEC Calcium ([5]; AdCYP 2C9 10x): 200 µM | MEC MMP ([5]; AdCYP 2C9 10x): > 1200 µM | MEC Mitochondrial superoxide ([5]; AdCYP 2C9 10x): 400 µM | MEC ROS ([5]; AdCYP 2C9 10x): 400 µM | Cmax [6]: 82.7 µM

O=C(O)Cc1ccccc1Nc1c(Cl)cccc1Cl [Diclofenac]
TR ([7]; AdCYP 3A4 1x): 42 | MEC Apoptosis ([7]; AdCYP 3A4 1x): 125 | MEC Calcium ([7]; AdCYP 3A4 1x): 10 | MEC MMP ([7]; AdCYP 3A4 1x): 125 | MEC Mitochondrial superoxide ([7]; AdCYP 3A4 1x): 50 | MEC ROS ([7]; AdCYP 3A4 1x): 10 | TR ([7]; AdCYP 3A4 4x): 84 | MEC Apoptosis ([7]; AdCYP 3A4 4x): 10 | MEC Calcium ([7]; AdCYP 3A4 4x): 10 | MEC MMP ([7]; AdCYP 3A4 4x): 125 | MEC Mitochondrial superoxide ([7]; AdCYP 3A4 4x): 5 | MEC ROS ([7]; AdCYP 3A4 4x): 5 | TR ([8]; CYP3A4-1X + CYP2C9-1X): 84 | MEC Apoptosis ([8]; CYP3A4-1X + CYP2C9-1X): 125 | MEC Calcium ([8]; CYP3A4-1X + CYP2C9-1X): 10 | MEC MMP ([8]; CYP3A4-1X + CYP2C9-1X): 125 | MEC Mitochondrial superoxide ([8]; CYP3A4-1X + CYP2C9-1X): 50 | MEC ROS ([8]; CYP3A4-1X + CYP2C9-1X): 5 | TR ([8]; CYP3A4-4X + CYP2C9-1X): 84 | MEC Apoptosis ([8]; CYP3A4-4X + CYP2C9-1X): 10 | MEC Calcium ([8]; CYP3A4-4X + CYP2C9-1X): 10 | MEC MMP ([8]; CYP3A4-4X + CYP2C9-1X): 125 | MEC Mitochondrial superoxide ([8]; CYP3A4-4X + CYP2C9-1X): 5 | MEC ROS ([8]; CYP3A4-4X + CYP2C9-1X): 5 | TR ([9]; TR = 100 x Cmax/lowest MEC): 42 | MEC Apoptosis [9, 16]: 50 | MEC Calcium [9, 16]: 50 | MEC MMP [9, 16]: 125 | MEC Mitochondrial superoxide [9, 16]: 10 | MEC ROS [9, 16]: 10 | IC50 [1, 13]: 42.1 µM | IC50 [1, 14]: 51.6 µM | IC50 [1, 15]: 15.5 µM | IC50 ([10]; ADV CYP2C19 x1, 24 h, read-out: IC50 (cell viability), ADV dose x1): 140 µM | IC50 ([10]; ADV CYP2C19 x4, 24 h, read-out: IC50 (cell viability), ADV dose x4): 158 µM | IC50 ([10]; ADV CYP2C19 x10, 24 h, read-out: IC50 (cell viability), ADV dose x10): 11.5 µM | MEC Apoptosis [2]: 125 µM | MEC Calcium [2]: 50 | MEC MMP [2]: 250 | MEC Mitochondrial superoxide [2]: 125 | MEC ROS [2]: 50 | TR [2]: 8.4 | TR ([11]; CYP3A4-1X + UGT2B7): 84 | MEC Apoptosis ([11]; CYP3A4-1X + UGT2B7): 5 | MEC Calcium ([11]; CYP3A4-1X + UGT2B7): 10 | MEC MMP ([11]; CYP3A4-1X + UGT2B7): 50 | MEC Mitochondrial superoxide ([11]; CYP3A4-1X + UGT2B7): 5 | MEC ROS ([11]; CYP3A4-1X + UGT2B7): 5 | TR ([11]; CYP3A4-4X + UGT2B7): 84 | MEC Apoptosis ([11]; CYP3A4-4X + UGT2B7): 5 | MEC Calcium ([11]; CYP3A4-4X + UGT2B7): 5 | MEC MMP ([11]; CYP3A4-4X + UGT2B7): 50 | MEC Mitochondrial superoxide ([11]; CYP3A4-4X + UGT2B7): 5 | MEC ROS ([11]; CYP3A4-4X + UGT2B7): 5 | IC50 [4]: 167 µM | Cmax [6]: 4.2 µM | IC50 [12, 17]: 126 µM | IC50 [12, 18]: 99 µM | IC50 [12, 19]: 2.8 µM

Cc1c(C)c2c(c(C)c1O)CCC(C)(COc1ccc(CC3SC(=O)NC3=O)cc1)O2 (stereo not drawn) [Troglitazone]
TR ([7]; AdCYP 3A4 1x): 12.8 | MEC Apoptosis ([7]; AdCYP 3A4 1x): 100 | MEC Calcium ([7]; AdCYP 3A4 1x): 75 | MEC MMP ([7]; AdCYP 3A4 1x): 200 | MEC Mitochondrial superoxide ([7]; AdCYP 3A4 1x): 200 | MEC ROS ([7]; AdCYP 3A4 1x): 50 | TR ([7]; AdCYP 3A4 4x): 12.8 | MEC Apoptosis ([7]; AdCYP 3A4 4x): 75 | MEC Calcium ([7]; AdCYP 3A4 4x): 50 | MEC MMP ([7]; AdCYP 3A4 4x): 200 | MEC Mitochondrial superoxide ([7]; AdCYP 3A4 4x): 75 | MEC ROS ([7]; AdCYP 3A4 4x): 50 | TR ([7]; AdCYP 3A4 10x): 12.8 | MEC Apoptosis ([7]; AdCYP 3A4 10x): 50 | MEC Calcium ([7]; AdCYP 3A4 10x): 50 | MEC MMP ([7]; AdCYP 3A4 10x): 150 | MEC Mitochondrial superoxide ([7]; AdCYP 3A4 10x): 50 | MEC ROS ([7]; AdCYP 3A4 10x): 50 | MEC Apoptosis [2]: 100 µM | MEC Calcium [2]: 100 | MEC MMP [2]: 200 | MEC Mitochondrial superoxide [2]: 200 | MEC ROS [2]: 100 | TR [2]: 6.4 | Bioactivation [3]: Yes | Enzyme: major enzyme(s) involved in the bioactivation (denoted as *) or detoxification of the drug [3]: CYP3A4* | Toxicity (mechanisms of toxicity) [3]: MI, OS | DILI category ([3]; ref Gustafsson et al. ([2014])): Severe | IC50 [4]: 213 µM | IC50 [12, 17]: 86 µM | IC50 [12, 18]: 76 µM | IC50 [12, 19]: < 50 µM
